{"source": "ChEMBL document CHEMBL1201862", "about": "“PubChem BioAssay data set” (2004)", "key": {"Beta-lactamase [1]": {"biological_target": "T1, Beta-lactamase (Pseudomonas aeruginosa, UniProt Q79MP6)", "assay": "[…] counterscreen for selective VIM-2 inhibitors: dose response biochemical high throughput screening assay to identify inhibitors of IMP-1 metallo-beta-lactamase."}, "Beta-lactamase [2]": {"biological_target": "T1, Beta-lactamase", "assay": "inhibition of IMP-1 beta-lactamase activity – biochemical, epi-absorbance, selectivity assay for VIM-2 inhibitor project, dose response (AID 1920)"}, "Beta-lactamase [3]": {"biological_target": "Beta-lactamase (Salmonella choleraesuis (strain SC-B67), UniProt Q5J463)", "assay": "Epi-absorbance-based counterscreen for selective VIM-2 inhibitors: dose response biochemical high throughput screening assay to identify inhibitors of TEM-1 serine-beta-lactamase."}, "[4]": {"biological_target": "Disintegrin and metalloproteinase domain-containing protein 17 (Homo sapiens, UniProt P78536)", "assay": "inhibition of ADAM17 substrate cleavage – biochemical, quenched FRET substrate, counter-screen for ADAM10 exosite inhibitor project, dose response (AID 743253)"}, "[5]": {"assay": "potency of ADAM10 substrate cleavage blockers – biochemical, QFRET, dose response (AID 743254);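 note: ADAM10 enzyme with the DM2 quenched FRET peptide as substrate; EDANS fluorescence gain as the protease cuts the substrate; inhibitor potency against ADAM10 proteolytic activity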"}, "Major prion protein": {"biological_target": "Major prion protein (Homo sapiens, UniProt P04156)", "assay_type": "functional, cell-based"}, "cells [6]": {"assay": "cells"}, "[7]": {"assay": "A cytotoxicity screen of small molecule inhibitors of the PhoP region in Salmonella typhi identified in the primary screen. [Related pubchem assays: 1850, 1864, 1985 ]", "assay_type": "functional"}, "Vero": {"tested_on": "Vero", "assay": "viability loss in Vero cells – cell-based, plate reader, cherry-pick samples, cytotoxicity control, dose response (AID 687020)", "assay_type": "functional", "details": "Chlorocebus sabaeus"}, "[8]": {"biological_target": "Fructose-bisphosphate aldolase (Mycobacterium tuberculosis, UniProt P9WQA3)", "assay": "Fluorescence-based biochemical high throughput dose response assay for inhibitors of the fructose-bisphosphate aldolase (FBA) of M. tuberculosis.", "assay_type": "functional"}, "Galanin receptor type 3": {"biological_target": "Galanin receptor type 3 (Homo sapiens, UniProt O60755)", "assay": "Fluorescence-based cell-based primary high throughput dose response assay to identify antagonists of the Galanin Receptor 3 (GalR3).", "assay_type": "functional"}, "cells [9]": {"assay": "cells", "assay_type": "functional, cell-based", "details": "HEK-CNG"}, "[10]": {"assay": "Late stage assay provider results from the probe development effort to identify selective inhibitors of heat shock protein 90 (HSP90): Absorbance-based cell proliferation assay in MCF7 cells.", "assay_type": "functional"}, "[11]": {"biological_target": "Heat shock protein HSP 90-alpha (Homo sapiens, UniProt P07900)", "assay": "Luminescence-based dose response biochemical high throughput screening assay for inhibitors of the Heat Shock Protein 90 (HSP90). [Related pubchem assays: 1831 (Summary AID.), 1846 (Confirmation screen.), 1789 (Primary screen.)]"}, "[12]": {"assay": "Late stage assay provider results from the probe development effort to identify selective inhibitors of heat shock protein 90 (HSP90): Absorbance-based cell proliferation assay in SKBR3 cells.", "assay_type": "functional", "details": "SK-BR-3"}, "[13]": {"assay": "viability loss in HepG2 hepatoma cells – cell-based, ATP luminescence, cherry-pick, activator set 2, cytotoxicity control, dose response (AID 1053143)", "assay_type": "functional"}, "[14]": {"biological_target": "Dual specificity tyrosine-phosphorylation-regulated kinase 1A (Rattus norvegicus, UniProt Q63470)", "assay_type": "biochemical, Homo sapiens"}, "[15]": {"assay": "OVCAR8 cell viability loss – plate reader, dry powder samples, PAX8 project, dose response (AID 743197)", "assay_type": "functional, cell-based", "details": "OVCAR-8"}, "[16]": {"assay": "IGROV1 cell killing – plate reader, dry powder samples, PAX8 inhibitor project, dose response (AID 743043)", "assay_type": "functional, cell-based", "details": "IGROV-1"}, "[17]": {"assay": "OVCAR-3 cell viability loss – plate reader, dry powder samples, PAX8 inhibitor project, dose response (AID 743044)", "assay_type": "functional, cell-based"}, "Paired box protein Pax-8": {"biological_target": "Paired box protein Pax-8 (Homo sapiens, UniProt Q06710)", "assay": "PAX8 transcriptional activity inhibition in RMG-I – RMG-I cells, luciferase, cherry-pick, dose response (AID 687027);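 note: luciferase reporter driven by Pax8 target thyroperoxidase promoter measured by SteadyGlo luminescence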", "assay_type": "functional, cell-based"}, "[18]": {"assay": "A2780 cell killing – plate reader, dry powder samples, cytotoxicity control, dose response (AID 743046)", "assay_type": "functional, cell-based"}, "[19]": {"assay": "general cell-killing toxicity readout – plate reader, dry powder samples, cytotoxicity control for PAX8 inhibitor project, dose response (AID 743021)", "assay_type": "functional, cell-based"}, "[20]": {"assay": "CMV-driven luciferase expression suppression in HEK293 – cell-based, luminescence, dry powder, counter-screen for Pax8 inhibitor project, dose response (AID 743020)", "assay_type": "functional"}, "[21]": {"biological_target": "Endoplasmic reticulum aminopeptidase 1 (Homo sapiens, UniProt Q9NZ08)", "assay": "inhibition of human ERAP1 enzyme activity – biochemical, cherry-pick, set 2, plate reader, dose response (AID 743314)"}, "[22]": {"assay": "Counterscreen for antagonists of the human trace amine associated receptor 1 (hTAAR1): Fluorescence-based cell-based high throughput dose response assay to identify nonselective Ga16 antagonists.", "assay_type": "functional"}, "[23]": {"assay": "Counterscreen for […] of the human trace amine associated receptor 1 (TAAR1): Fluorescence-based cell-based high throughput dose response assay to identify nonselective Ga16 agonists.", "assay_type": "functional"}, "[24]": {"assay": "Luminescence Cell-Based Dose Retest to Confirm Inhibitors of Cancer Stem Cells. [Related pubchem assays (depositor defined):AID2717, AID2721]", "assay_type": "functional", "details": "Homo sapiens"}, "[25]": {"assay": "Late stage assay provider results from the probe development effort to identify inhibitors of the Plasmodium falciparum M17 Leucine Aminopeptidase (M17LAP): radiolabel-based cell-based dose response assay to identify compounds that inhibit P. falciparum growth in RBCs Set 2.", "assay_type": "functional"}, "[26]": {"assay": "luciferase reporter signal reduction – luminescence, H4-C neuroglioblastoma cells, dose response (AID 2458);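 note: H4 neuroglioblastoma cells stably carrying a luciferase reporter gene fusion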", "assay_type": "functional, cell-based"}, "SN12K1": {"tested_on": "SN12K1", "assay": "cells", "assay_type": "functional", "details": "Homo sapiens"}, "P388": {"tested_on": "P388", "assay": "cells", "assay_type": "functional", "details": "Mus musculus"}, "[27]": {"assay": "luciferase reporter signal suppression in cells – H4 neuroglioma cells, luminescence, dose response (AID 1990)", "assay_type": "functional, cell-based"}, "[28]": {"assay": "HEK-293T viability loss after treatment – luminescence, T-cell screen hits, cytotoxicity control for TCR NF-kB inhibitor project, dose response (AID 489026);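 note: cells exposed to compound about 14 hours before the viability readout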", "assay_type": "functional, cell-based"}, "P388/ADR": {"tested_on": "P388/ADR", "assay": "cells", "assay_type": "functional", "details": "Mus musculus"}, "[29]": {"assay": "alpha-synuclein stem-loop luciferase translation blockers – H4 neuroglioma cells, luminescence, confirmation (AID 1988)", "assay_type": "functional, cell-based"}, "cells [30]": {"assay": "cells", "assay_type": "functional, cell-based"}, "[31]": {"assay": "alpha-synuclein stem-loop translation blockers – luminescence, H4 neuroglioblastoma cells, dose confirmation, confirmation (AID 2454)", "assay_type": "functional, cell-based"}, "[32]": {"assay": "rescue of ΔF508 CFTR function, airway epithelium – human bronchial epithelial cells, plate reader, cherry-pick, two tests, dose response (AID 743267)", "assay_type": "functional, cell-based"}}, "note": "Active and inactive are the calls of the source.", "data": [{"smiles": "Cc1c(C)c2c(OCC(=O)N[C@@H](C)C(=O)O)cc3c(c2oc1=O)CCC(C)(C)O3", "values": [{"measurement": "IC50", "setting": "Beta-lactamase [1]", "result": "> 59.6 µM (inactive)"}, {"measurement": "IC50", "setting": "Beta-lactamase [2]", "result": "> 59.6 µM (inactive)"}, {"measurement": "IC50", "setting": "Beta-lactamase [3]", "result": "> 59.6 µM (inactive)"}]}, {"smiles": "O=C(NCCc1nc2ccccc2[nH]1)/C(=C/c1ccc2c(c1)OCO2)NC(=O)c1ccc(Cl)cc1Cl", "values": [{"measurement": "IC50", "setting": "[4]", "result": "> 69.5 µM (inactive)"}, {"measurement": "IC50", "setting": "[5]", "result": "> 69.5 µM (inactive)"}]}, {"smiles": "O=C(O)c1cc(-c2cccnc2)nc2ccc(Br)cc12", "values": [{"measurement": "IC50", "setting": "Major prion protein", "result": "13.8 µM (inactive)"}, {"measurement": "IC50", "setting": "cells [6]", "result": "> 138 µM (inactive)"}]}, {"smiles": "O=C(Nc1ccc(Cc2ccncc2)cc1)c1cccs1", "values": [{"measurement": "EC50", "setting": "[7]", "result": "> 50 µM (active)"}, {"measurement": "AC50", "setting": "Vero", "result": "26.3 µM (active)"}]}, {"smiles": "C=CCn1c(-c2ccc(N)cc2)nc2ccccc21", "values": [{"measurement": "IC50", "setting": "[8]", "result": "> 0.37 µM (active)"}]}, {"smiles": "O=c1c(Cl)c(NCC2CCCO2)cnn1C12CC3CC(CC(C3)C1)C2", "note": "(stereo not drawn)", "values": [{"measurement": "IC50", "setting": "Galanin receptor type 3", "result": "> 29.9 µM (inactive)"}, {"measurement": "EC50", "setting": "cells [9]", "result": "> 29.9 µM (inactive)"}]}, {"smiles": "COC(=O)c1ccc2nc(NC(=O)C3CC3)sc2c1", "values": [{"measurement": "IC50", "setting": "[10]", "result": "49.2 µM (inactive)"}, {"measurement": "IC50", "setting": "[11]", "result": "3.82 µM (active)"}, {"measurement": "IC50", "setting": "[12]", "result": "> 100 µM (inactive)"}]}, {"smiles": "C=CS(=O)(=O)c1c2cc(OC)ccc2nc2ccc(OC)cc12", "values": [{"measurement": "AC50", "setting": "[13]", "result": "25.4 µM (active)"}, {"measurement": "AC50", "setting": "[14]", "result": "0.682 µM (active)"}]}, {"smiles": "C[C@@H]1CN([C@@H](C)CO)C(=O)c2cc(NC(=O)Nc3ccc(C(F)(F)F)cc3)ccc2O[C@@H](C)CCCCO[C@H]1CN(C)Cc1ccncc1", "values": [{"measurement": "AC50", "setting": "[15]", "result": "53.8 µM (active)"}, {"measurement": "AC50", "setting": "[16]", "result": "53.7 µM (active)"}, {"measurement": "AC50", "setting": "[17]", "result": "29.5 µM (active)"}, {"measurement": "AC50", "setting": "Paired box protein Pax-8", "result": "8.41 µM (active)"}]}, {"smiles": "C[C@@H]1CN([C@@H](C)CO)S(=O)(=O)c2ccc(C#CC3CCCC3)cc2O[C@H]1CN(C)Cc1cccnc1", "values": [{"measurement": "AC50", "setting": "[18]", "result": "15 µM (active)"}, {"measurement": "AC50", "setting": "[17]", "result": "25.7 µM (active)"}, {"measurement": "AC50", "setting": "[19]", "result": "57.1 µM (active)"}, {"measurement": "AC50", "setting": "Paired box protein Pax-8", "result": "8.33 µM (active)"}, {"measurement": "AC50", "setting": "[20]", "result": "47.5 µM (active)"}]}, {"smiles": "O=C(NCC1CC1)[C@@H]1[C@@H](CO)[C@@H]2Cn3c(ccc(/C=C/c4ccccc4)c3=O)[C@H]1N2C(=O)C1CC1", "values": [{"measurement": "AC50", "setting": "[21]", "result": "14.7 µM (active)"}]}, {"smiles": "Cc1cc(Br)c(OCc2ccc(C(=O)N/N=C/c3ccc[nH]3)cc2)c(Br)c1", "values": [{"measurement": "IC50", "setting": "[22]", "result": "> 29.9 µM (inactive)"}, {"measurement": "EC50", "setting": "[23]", "result": "> 29.9 µM (inactive)"}, {"measurement": "AC50", "setting": "[19]", "result": "59.4 µM (active)"}, {"measurement": "AC50", "setting": "Paired box protein Pax-8", "result": "0.693 µM (active)"}, {"measurement": "AC50", "setting": "[24]", "result": "0.228 µM (active)"}]}, {"smiles": "O=C(Cc1ccc(OCc2ccccc2)cc1)NO", "values": [{"measurement": "IC50", "setting": "[25]", "result": "4.7 µM (active)"}]}, {"smiles": "CC(=O)O[C@H]1C(=O)[C@@]2(C)[C@H]([C@H](OC(=O)c3ccccc3)[C@]3(O)C[C@H](OC(=O)[C@H](O)[C@@H](NC(=O)c4ccccc4)c4ccccc4)C(C)=C1C3(C)C)[C@]1(OC(C)=O)CO[C@@H]1C[C@@H]2O", "note": "[PACLITAXEL]", "values": [{"measurement": "EC50", "setting": "[26]", "result": "0.039 µM (active)"}, {"measurement": "GI50", "setting": "SN12K1", "result": "0.00327 µM (active)"}, {"measurement": "GI50", "setting": "P388", "result": "0.00569 µM (active)"}, {"measurement": "EC50", "setting": "[27]", "result": "10.6 µM (active)"}, {"measurement": "IC50", "setting": "[28]", "result": "> 80 µM (inactive)"}, {"measurement": "GI50", "setting": "P388/ADR", "result": "0.605 µM (active)"}, {"measurement": "EC50", "setting": "[29]", "result": "< 0.1 µM (active)"}, {"measurement": "EC50", "setting": "cells [30]", "result": "0.086 µM (active)"}, {"measurement": "EC50", "setting": "[31]", "result": "0.069 µM (active)"}, {"measurement": "AC50", "setting": "[32]", "result": "3.59 µM (active)"}]}]}
